From patent US8158792B2, “Spiropiperidines for use as tryptase inhibitors” (Janssen Pharmaceutica N.V., priority 2007, dated 2012)

Biological target: human lung tryptase
Experiment: β-Tryptase In-Vitro Enzyme Assay
Type: biochemical
Settings: human lung tryptase 1 nM, substrate H-D-HHT-Ala-Arg-pNa 500 μM, pH 7.4, room temperature
Experimental: The β-tryptase assay was conducted with human lung tryptase (Cortex Biochem #CP3033) in an aqueous buffer (10 mM Tris, 10 mM Hepes, 150 mM NaCl, 0.1% PEG 8000, pH 7.4) using the chromogenic substrate H-D-HHT-Ala-Arg-pNa. […] Percent inhibition was calculated by comparing the initial reaction velocity of samples without inhibitor to those with inhibitor. The initial reaction velocities were analyzed using Microsoft Excel.

SMILES | IC50 [nM]
NCc1ccc2c(c1)C1(CCN(C(=O)/C=C/c3ccccc3Cl)CC1)CO2 [Cpd 186, (E)-1-(2-chloro-phenylethenyl)carbonyl-5′-aminomethyl-spiro[piperidine-4,3′-(2H)-benzo[b]furan]] | 53
NCc1ccc2c(c1)C1(CCN(C(=O)/C=C/c3ccc4c(c3)OCO4)CC1)CO2 [Cpd 187, (E)-1-(benzodioxol-5-ylethenyl)carbonyl-5′-aminomethyl-spiro[piperidine-4,3′-(2H)-benzo[b]furan]] | 790
NCc1ccc2c(c1)C1(CCN(C(=O)/C=C/c3cccc4ccccc34)CC1)CO2 [Cpd 188, (E)-1-(naphthalen-1-ylethenyl)carbonyl-5′-aminomethyl-spiro[piperidine-4,3′-(2H)-benzo[b]furan]] | 130
NCc1ccc2c(c1)C1(CCN(C(=O)C=C3c4ccccc4-c4ccccc43)CC1)CO2 [Cpd 189, 1-(1-oxo-2-fluoren-9-ylidene-ethyl)-5′-aminomethyl-spiro[piperidine-4,3′-(2H)-benzo[b]furan]] | 380
NCc1ccc2c(c1)C1(CCN(C(=O)/C(=C/c3ccccc3)c3ccccc3)CC1)CO2 [Cpd 190, (E)-1-(1-phenyl-2-phenylethenyl)carbonyl-5′-aminomethyl-spiro[piperidine-4,3′-(2H)-benzo[b]furan]] | 590
Cc1ccccc1/C=C/C(=O)N1CCC2(CC1)COc1ccc(CN)cc12 [Cpd 191, (E)-1-(2-methyl-phenylethenyl)carbonyl-5′-aminomethyl-spiro[piperidine-4,3′-(2H)-benzo[b]furan]] | 250
CC1=C(C(=O)N2CCC3(CC2)COc2ccc(CN)cc23)Cc2ccccc21 [Cpd 192, 1-(1-methyl-3H-inden-2-yl)carbonyl-5′-aminomethyl-spiro[piperidine-4,3′-(2H)-benzo[b]furan]] | 150
Cn1c(C(=O)N2CCC3(CC2)COc2ccc(CN)cc23)cc2ccccc21 [Cpd 193, 1-(1-methyl-indol-2-yl)carbonyl-5′-aminomethyl-spiro[piperidine-4,3′-(2H)-benzo[b]furan]] | 360
COc1ccccc1/C=C/C(=O)N1CCC2(CC1)COc1ccc(CN)cc12 [Cpd 194, (E)-1-(2-methoxy-phenylethenyl)carbonyl-5′-aminomethyl-spiro[piperidine-4,3′-(2H)-benzo[b]furan]] | 150
NCc1ccc2c(c1)C1(CCN(C(=O)/C=C/c3c(F)cccc3F)CC1)CO2 [Cpd 195, (E)-1-(2,6-difluoro-phenylethenyl)carbonyl-5′-aminomethyl-spiro[piperidine-4,3′-(2H)-benzo[b]furan]] | 120
NCc1ccc2c(c1)C1(CCN(C(=O)c3cc4ccccc4oc3=O)CC1)CO2 [Cpd 196, 1-(2-oxo-(2H)-chromen-3-yl)carbonyl-5′-aminomethyl-spiro[piperidine-4,3′-(2H)-benzo[b]furan]] | 680
COc1cccc2c1OCC(C(=O)N1CCC3(CC1)COc1ccc(CN)cc13)=C2 [Cpd 197, 1-(8-methoxy-(2H)-chromen-3-yl)carbonyl-5′-aminomethyl-spiro[piperidine-4,3′-(2H)-benzo[b]furan]] | 230
NCc1ccc2c(c1)C1(CCN(C(=O)c3ccc(Br)s3)CC1)CO2 [Cpd 198, 1-(5-bromo-thien-2-yl)carbonyl-5′-aminomethyl-spiro[piperidine-4,3′-(2H)-benzo[b]furan]] | 73
NCc1ccc2c(c1)C1(CCN(C(=O)/C=C/c3ccccc3Br)CC1)CO2 [Cpd 199, (E)-1-(2-bromo-phenylethenyl)carbonyl-5′-aminomethyl-spiro[piperidine-4,3′-(2H)-benzo[b]furan]] | 180
NCc1ccc2c(c1)C1(CCN(C(=O)c3cc4cc(C(F)(F)F)ccc4s3)CC1)CO2 [Cpd 200, 1-(5-trifluoromethyl-benzo[b]thien-2-yl)carbonyl-5′-aminomethyl-spiro[piperidine-4,3′-(2H)-benzo[b]furan]] | 4100
COc1ccc(-c2c(C(=O)N3CCC4(CC3)COc3ccc(CN)cc34)sc(SC)c2C#N)cc1 [Cpd 201, 1-[3-(4-methoxy-phenyl)-4-cyano-5-methylthio-thien-2-yl]carbonyl-5′-aminomethyl-spiro[piperidine-4,3′-(2H)-benzo[b]furan]] | 45
CSc1sc(C(=O)N2CCC3(CC2)COc2ccc(CN)cc23)c(-c2ccc(Cl)cc2)c1C#N [Cpd 202, 1-[3-(4-chloro-phenyl)-4-cyano-5-methylthio-thien-2-yl]carbonyl-5′-aminomethyl-spiro[piperidine-4,3′-(2H)-benzo[b]furan]] | 51
NCc1ccc2c(c1)C1(CCN(C(=O)c3scc4c3CCCC4)CC1)CO2 [Cpd 203, 1-(5,6,7-trihydro-4H-benzo[c]thien-1-yl)carbonyl-5′-aminomethyl-spiro[piperidine-4,3′-(2H)-benzo[b]furan]] | 280
NCc1ccc2c(c1)C1(CCN(C(=O)c3cc4sccc4s3)CC1)CO2 [Cpd 204, 1-thieno[3,2-b]thien-2-ylcarbonyl-5′-aminomethyl-spiro[piperidine-4,3′-(2H)-benzo[b]furan]] | 89
CC(=O)N/C(=C\c1ccccc1)C(=O)N1CCC2(CC1)COc1ccc(CN)cc12 [Cpd 205, (Z)-1-(1-methylcarbonylamino-2-phenylethenyl)carbonyl-5′-aminomethyl-spiro[piperidine-4,3′-(2H)-benzo[b]furan]] | 740
Cc1nc(-c2ccc(C(=O)N3CCC4(CC3)COc3ccc(CN)cc34)s2)cs1 [Cpd 206, 1-[5-(2-methyl-thiazol-4-yl)-thien-2-yl]carbonyl-5′-aminomethyl-spiro[piperidine-4,3′-(2H)-benzo[b]furan]] | 260
Cc1ccc2c(Cl)c(C(=O)N3CCC4(CC3)COc3ccc(CN)cc34)sc2c1 [Cpd 207, 1-(3-chloro-6-methyl-benzo[b]thien-2-yl)carbonyl-5′-aminomethyl-spiro[piperidine-4,3′-(2H)-benzo[b]furan]] | 1500
Cc1ccccc1Oc1cccc(CC(=O)N2CCC3(CC2)COc2ccc(CN)cc23)c1 [Cpd 208, 1-[3-(2-methyl-phenoxy)-benzyl]carbonyl-5′-aminomethyl-spiro[piperidine-4,3′-(2H)-benzo[b]furan]] | 12
COc1ccc2c(Cl)c(C(=O)N3CCC4(CC3)COc3ccc(CN)cc34)sc2c1 [Cpd 209, 1-(3-chloro-6-methoxy-benzo[b]thien-2-yl)carbonyl-5′-aminomethyl-spiro[piperidine-4,3′-(2H)-benzo[b]furan]] | 330
NCc1ccc2c(c1)C1(CCN(C(=O)Cc3cccc(Oc4ccccc4F)c3)CC1)CO2 [Cpd 210, 1-[3-(2-fluoro-phenoxy)-benzyl]carbonyl-5′-aminomethyl-spiro[piperidine-4,3′-(2H)-benzo[b]furan]] | 26
CCCSc1sc(C(=O)N2CCC3(CC2)COc2ccc(CN)cc23)c2c1C(=O)CCC2 [Cpd 211, 1-(3-propylthio-4-oxo-5,6,7-trihydro-4H-benzo[c]thien-1-yl)carbonyl-5′-aminomethyl-spiro[piperidine-4,3′-(2H)-benzo[b]furan]] | 17
CCCc1ccc(OCc2ccc(C(=O)N3CCC4(CC3)COc3ccc(CN)cc34)o2)c(OC)c1 [Cpd 212, 1-[5-(2-methoxy-4-propyl-phenoxymethyl)-furan-2-yl]carbonyl-5′-aminomethyl-spiro[piperidine-4,3′-(2H)-benzo[b]furan]] | 370
